Experiments:
Format in all cases: in vivo
Abutilon [1] = test: Greenhouse pot test, post-emergence stem and leaf treatment, visual control effect 30 days after treatment, Gowing method
Description: (§1) In the present application, indoor combined action of the compound of herbicide active component A and B on weeds was measured to determine the combined effect of the composition on weeds, wherein the structure of the active component A was as follows:
(§2) The weed cultivation method was as follows: quantitative weed seeds abutilon and bristlegrass were respectively sown in a paper cup filled with nutrient soil with a diameter of 7 cm, and then cultivated in the greenhouse after covering the soil, suppressing and watering. The post-emergence stem and leaf treatment was performed when the grass weeds grew to 5-7 leaf stage, broad-leaved weeds grew to 6-8 leaf stage; the pre-emergence soil treatment was performed the second day after sowing, and the early post-emergence treatment was performed after sowing and before emergence; the experiment was repeated 3 times. After the treatment and drug solution naturally dried, the weeds were placed in the greenhouse to be managed according to conventional methods. According to the suppression or death of the weeds, a visual control effect investigation was conducted 30 days after the treatment. The application adopted the Gowing method to evaluate the combined effect of the proposed composition.
(§3) X—Weed control effect when the amount of herbicide component A is P;
(§4) Y—Weed control effect when the amount of herbicide component B is Q;
(§5) E0—Theoretical control effect when the amount of herbicide component A is […];
(§6) E—The measured control effect after the herbicide component A and the herbicide component B are mixed according to the above ratio.
(§7) When E−E0>10%, it is synergism; when E−E0<−10%, it is antagonism; when E−E0 value is between ±10%, it is addition.

Bristlegrass [2] = test: as above
Description: as §1, §2, §3, §4, §5, §6, §7

Abutilon [3] = test: Example 12 indoor pot experiment, stem and leaf spray, visual control effect 30 days after treatment, Gowing method
Description: (§8) The combined effect of the composition on the weeds was clarified by the indoor pot experiment.
(§9) The weed cultivation and test material cultivation method was as follows: quantitative weed seeds abutilon and bristlegrass were respectively sown in a paper cup filled with nutrient soil with a diameter of 7 cm, and then cultivated in the greenhouse after covering the soil, suppressing and watering. The stem and leaf spray treatment was performed when the grass weeds grew to 5-7 leaf stage, and broad-leaved weeds grew to 6-8 leaf stage; the tests were repeated for 3 times. the treatment and drug solution naturally dried, the weeds were placed in the greenhouse to be managed according to conventional methods. According to the suppression or death of the weeds, a visual control effect investigation was conducted 30 days after the treatment.
(§10) The application adopted the Gowing method to evaluate the combined effect of the proposed composition.
as §3, §4, §5, §6, §7

Bristlegrass [4] = test: as above
Description: as §8, §9, §10, §3, §4, §5, §6, §7

Abutilon [5] = test: Greenhouse pot test (treatment timing not given, Table 6), visual control effect, Gowing method
Description: as §1, §2, §3, §4, §5, §6, §7

Abutilon [6] = test: Greenhouse pot test, pre-emergence soil treatment, visual control effect 30 days after treatment, Gowing method
Description: as §1, §2, §3, §4, §5, §6, §7

Bristlegrass [7] = test: as above
Description: as §1, §2, §3, §4, §5, §6, §7

Amaranthusretroflexus = test: Greenhouse pot test (treatment timing not given, Table 7), visual control effect, Gowing method
[8] = system: goosegrass (collected from Zhengzhou, Henan); test: Example 13 combined effect on weeds, Gowing method
Description: as §9, §10, §3, §4, §5, §6, §7
(§11) The test targets were horseweed herb collected from Shenyang, Liaoning and goosegrass collected from Zhengzhou, Henan.

[9] = system: Horseweed herb (collected from Shenyang, Liaoning); test: Example 13 combined effect on weeds, Gowing method
Description: as §9, §10, §3, §4, §5, §6, §7, §11

Eclipta alba = test: Greenhouse pot test, pre-emergence soil treatment, visual control effect 30 days after treatment, Gowing method
Abutilon [10] = test: Example 15 indoor pot planting, death rate / herbicidal speed, weeds in 6-leaf stage
Description: (§12) The death rate of weeds after application of the herbicidal composition of the present application was measured and compared with the herbicidal rate when a single component was used. The test used the method of indoor pot planting. At the time of treatment, abutilon and barnyardgrass were in 6-leaf stage.

Echinochloacrusgalli = test: as above
Description: as §12

Lambsquarters = test: Greenhouse pot test, pre-emergence soil treatment, visual control effect 30 days after treatment, Gowing method
Bristlegrass [11] = test: Greenhouse pot test (treatment timing not given, Tables 6 and 7), visual control effect, Gowing method
Description: as §1, §2, §3, §4, §5, §6, §7

[12] = Example 12 Table 1, dose 3.75 ga.i./hm^2
[13] = Example 12 Table 1, dose 7.5 ga.i./hm^2
[14] = Example 12 Table 1, dose 15 ga.i./hm^2
[15] = Example 12 Table 1, dose 30 ga.i./hm^2
[16] = Example 13 Table 2, dose 3.75 ga.i./hm^2
[17] = Example 13 Table 2, dose 7.5 ga.i./hm^2
[18] = Example 13 Table 2, dose 15 ga.i./hm^2
[19] = Example 13 Table 2, dose 30 ga.i./hm^2
[20] = Table 11, 7 days after treatment, dose 15 ga.i./hm^2
[21] = Table 11, 7 days after treatment, dose 30 ga.i./hm^2
[22] = Table 11, 7 days after treatment, dose 60 ga.i./hm^2
[23] = Table 11, 7 days after treatment, dose 120 ga.i./hm^2
[24] = Table 11, 15 days after treatment, dose 15 ga.i./hm^2
[25] = Table 11, 15 days after treatment, dose 30 ga.i./hm^2
[26] = Table 11, 15 days after treatment, dose 60 ga.i./hm^2
[27] = Table 11, 15 days after treatment, dose 120 ga.i./hm^2
[28] = Table 11, 30 days after treatment, dose 15 ga.i./hm^2
[29] = Table 11, 30 days after treatment, dose 30 ga.i./hm^2
[30] = Table 11, 30 days after treatment, dose 60 ga.i./hm^2
[31] = Table 11, 30 days after treatment, dose 120 ga.i./hm^2

In the case of CCOC(=O)C1(C)CC(c2cc(-n3c(=O)cc(C(F)(F)F)n(C)c3=O)c(F)cc2Cl)=NO1 (stereo not drawn) [active component A, 3-(2-chloro-4-fluoro-5-(3-methyl-2,6-dioxo-4-trifluoromethyl-3,6-dihydropyrimidine-1(2H)-yl)phenyl)-5-methyl-4,5-dihydroisoxazole-5-carboxylic acid ethyl ester], the “Measured value E” value (Abutilon [1]; Table 5, dose 7.5 ga.i./hm^2) is reported as 10%, the “Measured value E” value (Abutilon [1]; Table 5, dose 15 ga.i./hm^2) is reported as 15% and the “Measured value E” value (Bristlegrass [2]; Table 5, dose 7.5 ga.i./hm^2) is reported as 5%. The “Measured value E” value (Bristlegrass [2]; Table 5, dose 15 ga.i./hm^2) was 10%, the “Measured value E” value (Abutilon [3]; [12]) was 10% and the “Measured value E” value (Abutilon [3]; [13]) was 25%. The “Measured value E” value (Abutilon [3]; [14]) was 40%, the “Measured value E” value (Abutilon [3]; [15]) was 55% and the “Measured value E” value (Bristlegrass [4]; [12]) was 5%. For the same molecule, the “Measured value E” value (Bristlegrass [4]; [13]) was 10%, the “Measured value E” value (Bristlegrass [4]; [14]) was 15% and the “Measured value E” value (Bristlegrass [4]; [15]) was 25%. For the same molecule, the “Measured value E” value (Abutilon [5]; dose 15 ga.i./hm^2) was 35%, the “Measured value E” value (Abutilon [5]; dose 60 ga.i./hm^2) was 45% and the “Measured value E” value (Abutilon [6]; Table 4, dose 15 ga.i./hm^2) was 5%. The “Measured value E” value (Abutilon [6]; Table 4, dose 30 ga.i./hm^2) was 20%, the “Measured value E” value (Bristlegrass [7]; Table 1, dose 7.5 ga.i./hm^2) was 0% and the “Measured value E” value (Bristlegrass [7]; Table 1, dose 15 ga.i./hm^2) was 15%. For the same molecule, the “Measured value E” value (Bristlegrass [7]; Table 2, dose 15 ga.i./hm^2) was 10%, the “Measured value E” value (Bristlegrass [7]; Table 2, dose 22.5 ga.i./hm^2) was 25% and the “Measured value E” value (Bristlegrass [7]; Table 3, dose 7.5 ga.i./hm^2) was 0%. For the same molecule, the “Measured value E” value (Bristlegrass [7]; Table 3, dose 15 ga.i./hm^2) was 10%, the “Measured value E” value (Bristlegrass [7]; Table 4, dose 15 ga.i./hm^2) was 10% and the “Measured value E” value (Bristlegrass [7]; Table 4, dose 30 ga.i./hm^2) was 15%. The “Measured value E” value (Amaranthusretroflexus; dose 15 ga.i./hm^2) was 20%, the “Measured value E” value (Amaranthusretroflexus; dose 30 ga.i./hm^2) was 65% and the “Measured value E” value [8, 16] was 5%. For the same molecule, the “Measured value E” value [8, 17] was 15%, the “Measured value E” value [8, 18] was 30% and the “Measured value E” value [8, 19] was 45%. The “Measured value E” value [9, 16] was 10%, the “Measured value E” value [9, 17] was 30% and the “Measured value E” value [9, 18] was 35%. For the same molecule, the “Measured value E” value [9, 19] was 55%, the “Measured value E” value (Eclipta alba; Table 3, dose 7.5 ga.i./hm^2) was 0% and the “Measured value E” value (Eclipta alba; Table 3, dose 15 ga.i./hm^2) was 10%. The “Control effect (visual observation %)” value (Abutilon [10]; [20]) was 46.0%, the “Control effect (visual observation %)” value (Abutilon [10]; [21]) was 68.1% and the “Control effect (visual observation %)” value (Abutilon [10]; [22]) was 82.4%. For the same molecule, the “Control effect (visual observation %)” value (Abutilon [10]; [23]) was 94.3%, the “Control effect (visual observation %)” value (Abutilon [10]; [24]) was 54.0% and the “Control effect (visual observation %)” value (Abutilon [10]; [25]) was 62.4%. For the same molecule, the “Control effect (visual observation %)” value (Abutilon [10]; [26]) was 93.8%, the “Control effect (visual observation %)” value (Abutilon [10]; [27]) was 100% and the “Control effect (visual observation %)” value (Abutilon [10]; [28]) was 38.6%. The “Control effect (visual observation %)” value (Abutilon [10]; [29]) was 57.3%, the “Control effect (visual observation %)” value (Abutilon [10]; [30]) was 100% and the “Control effect (visual observation %)” value (Abutilon [10]; [31]) was 100%. For the same molecule, the “Control effect (visual observation %)” value (Echinochloacrusgalli; [20]) was 16.6%, the “Control effect (visual observation %)” value (Echinochloacrusgalli; [21]) was 18.0% and the “Control effect (visual observation %)” value (Echinochloacrusgalli; [22]) was 31.0%. For the same molecule, the “Control effect (visual observation %)” value (Echinochloacrusgalli; [23]) was 34.3%, the “Control effect (visual observation %)” value (Echinochloacrusgalli; [24]) was 18.4% and the “Control effect (visual observation %)” value (Echinochloacrusgalli; [25]) was 19.8%. For the same molecule, the “Control effect (visual observation %)” value (Echinochloacrusgalli; [26]) was 36.7%, the “Control effect (visual observation %)” value (Echinochloacrusgalli; [27]) was 40.7% and the “Control effect (visual observation %)” value (Echinochloacrusgalli; [28]) was 20.9%. The “Control effect (visual observation %)” value (Echinochloacrusgalli; [29]) was 43.2%, the “Control effect (visual observation %)” value (Echinochloacrusgalli; [30]) was 32.9% and the “Control effect (visual observation %)” value (Echinochloacrusgalli; [31]) was 42.5%. For the same molecule, the “Measured value E” value (Lambsquarters; Table 1, dose 7.5 ga.i./hm^2) was 5%, the “Measured value E” value (Lambsquarters; Table 1, dose 15 ga.i./hm^2) was 20% and the “Measured value E” value (Lambsquarters; Table 2, dose 15 ga.i./hm^2) was 15%. For the same molecule, the “Measured value E” value (Lambsquarters; Table 2, dose 22.5 ga.i./hm^2) was 25%, the “Measured value E” value (Bristlegrass [11]; Table 6, dose 15 ga.i./hm^2) was 10% and the “Measured value E” value (Bristlegrass [11]; Table 6, dose 60 ga.i./hm^2) was 35%. The “Measured value E” value (Bristlegrass [11]; Table 7, dose 15 ga.i./hm^2) was 20% and the “Measured value E” value (Bristlegrass [11]; Table 7, dose 30 ga.i./hm^2) was 50%.
For CCOCN(C(=O)CCl)c1c(C)cccc1CC [Acetochlor], the “Measured value E” value (Bristlegrass [7]; Table 3, dose 75 ga.i./hm^2) was 50%, the “Measured value E” value (Bristlegrass [7]; Table 3, dose 150 ga.i./hm^2) was 75% and the “Measured value E” value (Eclipta alba; Table 3, dose 75 ga.i./hm^2) was 10%. For the same molecule, the “Measured value E” value (Eclipta alba; Table 3, dose 150 ga.i./hm^2) was 35%.

Source: patent publication US20210112813A1, “HERBICIDAL COMPOSITION AND USE THEREOF” (NANTONG JIANGSHAN AGROCHEMICAL & CHEMICALS CO., LTD., priority 2019, published 2021)
